The source of these data is PubChem BioAssay (NCI).

Test systems include A549 NSCLC; MALME-3M melanoma; 786-0 renal; SF-539 CNS; SK-MEL-2 melanoma; HCT-116 colon; SNB-19 CNS; EKVX NSCLC; COLO 205 colon; RXF 393 renal.
Common to all, as to assay: NCI anticancer screen, dose series, 48 h

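Cells were grown in 96-well plates and exposed to each compound for 48 hours at five concentrations; endpoints were interpolated linearly between bracketing concentrations, or set to the highest concentration if not reached. GI50: concentration for 50% inhibition of growth. At the TGI there is no net growth.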

As to `CC(=O)CC(=O)CCCC(=O)Nc1ccc(Cl)cc1C`, the TGI with A549 NSCLC, in the test with MALME-3M melanoma, in the test on 786-0 renal, in the test with SF-539 CNS, in the test with SK-MEL-2 melanoma and with HCT-116 colon was > 100 µM each time. The TGI with SNB-19 CNS, in the test with EKVX NSCLC and with COLO 205 colon was > 100 µM throughout.

For the compound `O=S(=O)(NCCNc1nccc(-c2c(-c3cccc(O)c3)nc3sccn23)n1)c1ccc(F)cc1`, the GI50 with A549 NSCLC is 3.51 µM; in the test on 786-0 renal it was 5.35 µM; in the test with SF-539 CNS, 5.23 µM; in the test on SK-MEL-2 melanoma, 4.49 µM; with HCT-116 colon, 3.26 µM; in the test on RXF 393 renal, 2.44 µM. The GI50 in the test on SNB-19 CNS was 16.5 µM; in the test with COLO 205 colon it was 0.779 µM. In addition, the TGI in the test with A549 NSCLC came to 36.1 µM; in the test with 786-0 renal it was 41.8 µM; with SF-539 CNS, 24.6 µM; in the test with SK-MEL-2 melanoma, 20.2 µM; with HCT-116 colon, 27.1 µM; in the test on RXF 393 renal, 12.5 µM. Further, the TGI in the test with SNB-19 CNS amounted to 75.3 µM; in the test on COLO 205 colon, 11.5 µM.

For `N=C(N)n1ncc(Cl)c(Cl)c1=O`, the TGI was determined as 33.6 µM in the test on A549 NSCLC; 4.98 µM in the test on MALME-3M melanoma; 7.02 µM with 786-0 renal; 5.42 µM in the test with SF-539 CNS; 6.93 µM in the test with SK-MEL-2 melanoma; 3.32 µM in the test on HCT-116 colon. The values for the TGI with SNB-19 CNS, with EKVX NSCLC and in the test with COLO 205 colon were 12.9 µM, 5.07 µM and 3.43 µM, respectively.

Take `CCOC(=O)CC(=O)ON(C)C(=O)Cc1ccccc1`: the TGI with A549 NSCLC, with MALME-3M melanoma, in the test with 786-0 renal, in the test on SF-539 CNS, with SK-MEL-2 melanoma and with HCT-116 colon was > 100 µM each time. The TGI with SNB-19 CNS, with EKVX NSCLC and in the test with COLO 205 colon was > 100 µM each time.

`Cc1cc2c3ccccc3n(C)c2c2c1C(=O)c1ccccc1C2=O`: the TGI in the test with A549 NSCLC is 58 µM; in the test with MALME-3M melanoma it was 35.4 µM; with 786-0 renal, 34.3 µM; in the test on SF-539 CNS, > 100 µM; in the test with SK-MEL-2 melanoma it was 41.3 µM; in the test on HCT-116 colon, 32.4 µM. In addition, the TGI was 80.3 µM in the test with SNB-19 CNS, > 100 µM with EKVX NSCLC and 56.1 µM in the test on COLO 205 colon.

Consider `Cc1cccc2c1Oc1cc(Cl)ccc1C2NC(=O)CCN1CCCCC1` (stereo not drawn), for which the TGI with A549 NSCLC is 37.5 µM; with 786-0 renal, 28 µM; in the test with SF-539 CNS, 31.9 µM; in the test on HCT-116 colon, 32.1 µM; with SNB-19 CNS, 33 µM; in the test on EKVX NSCLC, 55.5 µM. For the same compound, the TGI in the test with COLO 205 colon is 34.6 µM.

`O=C(Nc1cccc(Cl)c1)Nc1cccc(Cl)c1`: the GI50 with MALME-3M melanoma is > 100 µM; in the test on 786-0 renal, 36.7 µM; in the test on SF-539 CNS, 49.1 µM; with SK-MEL-2 melanoma, > 21.5 µM; with RXF 393 renal it was 24.1 µM; in the test on SNB-19 CNS, > 42.9 µM. The TGI in the test on MALME-3M melanoma was > 100 µM; in the test on 786-0 renal, > 100 µM; in the test on SF-539 CNS it was > 100 µM; with SK-MEL-2 melanoma it was > 100 µM; in the test on RXF 393 renal, > 92.8 µM; in the test on SNB-19 CNS, > 100 µM.

On to `c1cncc(CNc2ccccc2-c2nnc(Nc3ccc4c(c3)OCO4)o2)c1`, for which the GI50 was 0.0686 µM in the test with A549 NSCLC; 0.0744 µM in the test on MALME-3M melanoma; 0.14 µM in the test with 786-0 renal; 0.0815 µM in the test with SF-539 CNS; 0.052 µM in the test with SK-MEL-2 melanoma; 0.0516 µM in the test with HCT-116 colon. Also, the GI50 with SNB-19 CNS is 0.112 µM; with EKVX NSCLC it was 0.328 µM; in the test with COLO 205 colon it was 0.0411 µM. The TGI was > 100 µM in the test on A549 NSCLC; > 100 µM in the test with MALME-3M melanoma; > 90.4 µM in the test with 786-0 renal; 0.539 µM in the test on SF-539 CNS; 91.9 µM with SK-MEL-2 melanoma; > 100 µM in the test on HCT-116 colon. In addition, the TGI in the test on SNB-19 CNS is > 100 µM; with EKVX NSCLC, > 100 µM; in the test with COLO 205 colon, 0.551 µM.

`CC(=O)Nc1ccc2nncnc2c1`: the TGI in the test on A549 NSCLC, with 786-0 renal, in the test with SF-539 CNS, with SK-MEL-2 melanoma, in the test with HCT-116 colon and with SNB-19 CNS was > 100 µM each time. Moreover, the TGI in the test on EKVX NSCLC and with COLO 205 colon was > 100 µM throughout.

On to `C/C(CN1C(=O)c2ccccc2C1=O)=N\NS(=O)(=O)c1ccccc1`, for which the TGI in the test on A549 NSCLC, with MALME-3M melanoma, in the test on 786-0 renal, with SF-539 CNS, in the test on SK-MEL-2 melanoma and in the test with HCT-116 colon was > 100 µM each time. The TGI in the test on SNB-19 CNS, in the test with EKVX NSCLC and in the test with COLO 205 colon was > 100 µM throughout.

On to `Cc1ccc2nc3c(Cl)cc(=O)cc-3sc2c1`, for which the TGI worked out at 43 µM with A549 NSCLC; 75.9 µM in the test on MALME-3M melanoma; 35.7 µM in the test with 786-0 renal; 11.5 µM in the test on SF-539 CNS; 32.2 µM in the test on HCT-116 colon; 39.1 µM in the test with EKVX NSCLC. In the test with COLO 205 colon, the TGI was found to be 36.3 µM.
